Converted amounts (≈) assume the structure as drawn.

This passage reports MIC results from ChEMBL document CHEMBL1150719, “Constituents of Tritonia crocosmaeflora, I. Tricrozarin A, a novel antimicrobial naphthazarin derivative” (1987).

What all share (assay type): functional
The subject of experiment [1] is Mucor racemosus. In words: Antifungal activity against Mucor racemosus IFO 5403 at 27 degC by paper disk assay.
In experiment [2] the test system is Bacillus subtilis. In words: Antibacterial activity against Bacillus subtilis PCI 219 after 24 hrs at 37 degC by paper disk assay. To be noted: PCI 219, 24 h.
The test system of experiment [3] is Aspergillus niger. In words: Antifungal activity against Aspergillus niger ATCC 6275 at 27 degC by paper disk assay.
Experiment [4] concerns Candida albicans. Description: Antifungal activity against Candida albicans KF1 at 27 degC by paper disk assay.
For experiment [5], the system named is Saccharomyces. Description: Antifungal activity against Saccharomyces sake KF26 at 27 degC by paper disk assay.
In experiment [6] the test system is Micrococcus luteus. In words: Antibacterial activity against Micrococcus luteus ATCC 9341 after 24 hrs at 37 degC by paper disk assay. To be noted: ATCC 9341, 24 h.

For orientation: MIC means the lowest concentration found to suppress growth. Low readings indicate greater potency, high ones weaker potency. Regarding `COC1=C(OC)C(=O)c2c(O)c3c(c(O)c2C1=O)OCO3` [TRICROZARIN A], the MIC in experiment [1] was 10.2 µg/mL (≈ 34.7 µM); in experiment [2] it was 5.1 µg/mL (≈ 17.3 µM); in experiment [3], 81.3 µg/mL (≈ 276 µM); in experiment [4], 81.3 µg/mL (≈ 276 µM); in experiment [5] it was 81.3 µg/mL (≈ 276 µM); in experiment [6], 112 µg/mL (≈ 381 µM).
